Results from PMC5871770, “Tlr1612 is the major repressor of cell aggregation in the light-color-dependent c-di-GMP signaling network of Thermosynechococcus vulcanus” (Scientific Reports, 2018).

Columns and labels:
[1] = target: T1, Tll0007-PilZ (FRET biosensor mCyPet-Tll0007 PilZ-mYPet) (Thermostichus vulcanus, UniProt E5RST0); assay: FRET biosensor titration (F527/F475); format: binding; conditions: 31 °C, pH 7.5, 100 mM NaCl, 10% glycerol, 50 nM protein; PilZ domain
T1 construct: gene Tvtll0007; N-terminal His tag, pET28V, E. coli expressed

[2] = target: T2, full-length YcgR of Escherichia coli (Escherichia coli, UniProt P76010); assay: FRET biosensor titration (F527/F475); format: binding; conditions: read-out: affinity
T2 construct: full length between mCyPet and mYPet (FRET reporters); N-terminal His tag, pET28V, E. coli expressed
T2 sequence (P76010 1-244): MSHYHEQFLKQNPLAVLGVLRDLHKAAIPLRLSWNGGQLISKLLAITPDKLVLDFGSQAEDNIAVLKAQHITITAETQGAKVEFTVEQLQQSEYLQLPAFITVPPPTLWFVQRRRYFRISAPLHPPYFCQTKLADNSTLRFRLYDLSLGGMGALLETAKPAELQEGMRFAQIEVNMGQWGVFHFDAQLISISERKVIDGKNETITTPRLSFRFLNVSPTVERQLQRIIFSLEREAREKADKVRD

[3] = target: T3, SesA; assay: EnzChek pyrophosphate assay, initial rate of diguanylate cyclase; format: biochemical; conditions: 31 °C, pH 7.5, 20 mM MgCl2, 100 µM GTP, 0.2 µM protein, blue-light pre-irradiated; allosteric product inhibition at I-site (RXXD)
T3 construct: PCC 6803 from pTCH2031V; pre-irradiated with blue light

[4] = target: T4, Tll0007-PilZ (FRET biosensor mCyPet-Tll0007 PilZ-mYPet) (Thermostichus vulcanus, UniProt E5RST0, R605A); assay: FRET biosensor titration (F527/F475); format: binding; conditions: 31 °C, pH 7.5, 100 mM NaCl, 10% glycerol, 50 nM protein; c-di-GMP 10 nM to 1 mM; PilZ RXXXR motif mutant
T4 construct: gene Tvtll0007; N-terminal His tag, pET28V, E. coli expressed
T4 sequence (E5RST0 entry or part of it R605A): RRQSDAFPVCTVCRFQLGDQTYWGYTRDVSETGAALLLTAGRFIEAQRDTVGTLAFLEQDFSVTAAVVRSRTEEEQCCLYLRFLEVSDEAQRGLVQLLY

T1 sequence (E5RST0 entry or part of it): as the sequence (E5RST0 entry or part of it R605A) above, with A6R counted along it

Kd [1]: 63900 ± 5100 nM
Kd [2]: 420 ± 80 nM
IC50 [3]: 1070 ± 130 nM
Structure (SMILES): Nc1nc2c(ncn2[C@@H]2O[C@@H]3CO[P@](=O)(O)O[C@H]4[C@@H](O)[C@H](n5cnc6c(=O)[nH]c(N)nc65)O[C@@H]4CO[P@](=O)(O)O[C@H]3[C@H]2O)c(=O)[nH]1 [c-di-GMP, bis-(3′-5′)-cyclic diguanylic acid]
no FRET increase (no binding detected) [4]: R605A lacked the corresponding increase in FRET efficiency upon c-di-GMP addition
